This note sets out measurements from the Kinase Knowledgebase extract (Sharma et al. 2016).

Several values for one entry are separate records, joined by “and”; a condition that tells them apart may be missing. Equal values may be shown once.

The target in this experiment is MAPK14 (human) (UniProt Q16539). In words: Inhibition of MAPK14 Kinase Activity.
Sequence of MAPK14 (human) (Q16539 whole entry, looked up): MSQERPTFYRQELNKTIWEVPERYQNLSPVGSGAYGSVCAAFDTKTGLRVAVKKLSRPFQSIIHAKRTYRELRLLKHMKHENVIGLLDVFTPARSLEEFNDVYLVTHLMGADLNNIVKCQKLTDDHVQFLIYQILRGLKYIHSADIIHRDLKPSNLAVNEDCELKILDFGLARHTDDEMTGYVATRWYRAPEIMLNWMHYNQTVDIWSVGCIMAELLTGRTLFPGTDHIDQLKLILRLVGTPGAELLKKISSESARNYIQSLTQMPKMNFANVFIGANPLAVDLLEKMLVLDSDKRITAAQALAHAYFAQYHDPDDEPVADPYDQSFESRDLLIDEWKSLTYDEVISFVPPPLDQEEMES
Usually IC50 stands for the concentration that inhibits the measured activity by half. Broadly, the Ki is the dissociation constant of the complex between target and ligand, obtained from inhibition or displacement. The low end stands for higher affinity, the high end for lower affinity. Compound `CNC(=O)CCCc1nc(OCc2ccc(F)cc2F)c(Cl)c(=O)n1C(C)C` registered a concentration for half-maximal inhibition (IC50) of 490 nM and a Ki of 252 nM.
For `Cc1nc(OCc2ccc(F)cc2CNC(=O)NC2CCCCC2)c(Br)c(=O)n1C(C)C`, in that order: 786 nM and 372 nM.
With `CC(C)n1c(CCC(=O)O)nc(OCc2ccc(F)cc2F)c(Cl)c1=O`, the IC50 amounted to 2330 nM and the inhibitory constant (Ki) amounted to 1110 nM.
For `CC(C)n1c(CNS(C)(=O)=O)nc(OCc2ccc(F)cc2F)c(Br)c1=O`, in that order: 59.4 nM and 28.5 nM.
Regarding `CC(C)n1c(CCCC(=O)O)nc(OCc2ccc(F)cc2F)c(Cl)c1=O`, the half-inhibitory concentration (IC50) is 497 nM and the Ki was found to be 247 nM.
For `CN[C@@H]1CCN(c2nc(OCc3ccc(F)cc3F)c(Br)c(=O)n2C(C)C)C1`, in that order: 12.8 nM and 6.37 nM.
For `CC(C)n1c(NCCNC(N)=O)nc(OCc2ccc(F)cc2F)c(Cl)c1=O`, in that order: 19.6 nM and 10.1 nM.
For `CC(C)n1c(N2CCC(N)C2)nc(OCc2ccc(F)cc2F)c(Br)c1=O` (configuration not stated), in that order: 150 nM and 62.2 nM.
The compound `CC(C)n1c(NCCC(C)(C)C)nc(OCc2ccc(F)cc2F)c(Br)c1=O` registered an IC50 of 131 nM and an inhibition constant Ki of 66.1 nM.
In turn, `Cc1nc(OCc2ccc(F)cc2F)c(Cl)c(=O)n1C(C)C` displayed an IC50 of 346 nM and an inhibitory constant (Ki) of 155 nM.
For `CC(C)n1cnc(OCc2ccc(F)cc2F)c(Br)c1=O`, in that order: 53 nM and 28.3 nM.
For `CC(C)n1c(NCc2ccc(F)cc2)nc(OCc2ccc(F)cc2F)c(Br)c1=O`, in that order: 29.9 nM and 13.7 nM.
For `CC(=O)N[C@H]1CCN(c2nc(OCc3ccc(F)cc3F)c(Cl)c(=O)n2C(C)C)C1`, in that order: 703 nM and 451 nM.
The compound `CC(C)n1c(OCCNS(C)(=O)=O)nc(OCc2ccc(F)cc2F)c(Cl)c1=O` gave an IC50 of 26.3 nM and a Ki of 15.5 nM.
`CC(=O)NCCOc1nc(OCc2ccc(F)cc2F)c(Br)c(=O)n1C(C)C`: the IC50 was 51 nM and the Ki was determined as 27.4 nM.
For `CC(C)n1c(OCCNC(N)=O)nc(OCc2ccc(F)cc2F)c(Cl)c1=O`, in that order: 21.2 nM and 12.4 nM.
For `CC(C)n1c(N2CCC(NC(=O)CN)C2)nc(OCc2ccc(F)cc2F)c(Br)c1=O` (configuration not stated), in that order: 217 nM and 118 nM.
For `CC(C)n1c(CCCC(N)=O)nc(OCc2ccc(F)cc2F)c(Cl)c1=O`, in that order: 256 nM and 127 nM.
`CC(C)n1c(NCC(=O)NCCO)nc(OCc2ccc(F)cc2F)c(Br)c1=O` showed an IC50 of 221 nM and an inhibition constant Ki of 105 nM.
On to `CC(C)n1c(NCCC(N)=O)nc(OCc2ccc(F)cc2F)c(Br)c1=O`, for which the IC50 is 12.8 nM and 14.2 nM; the Ki was 6.86 nM and 6.37 nM.
In the case of `CC(=O)NCCCCc1nc(OCc2ccc(F)cc2F)c(Cl)c(=O)n1C(C)C`, the concentration for half-maximal inhibition (IC50) came out at 334 nM and the inhibition constant Ki came out at 159 nM.
`CC(C)n1c(OCCCC(N)=O)nc(OCc2ccc(F)cc2F)c(Cl)c1=O`: the IC50 stood at 155 nM and the Ki came out at 73.4 nM.
For `CC(C)n1c(N2CC[C@@H](O)C2)nc(OCc2ccc(F)cc2F)c(Br)c1=O`, in that order: 605 nM and 297 nM.
For `CNC(=O)CCCc1nc(OCc2ccc(F)cc2F)c(Br)c(=O)n1C(C)C`, in that order: 557 nM and 255 nM.
For `CC(C)n1c(CCC(N)=O)nc(OCc2ccc(F)cc2F)c(Cl)c1=O`, in that order: 2040 nM and 976 nM.
In the case of `CC(C)n1c(N[C@@H](C)C(N)=O)nc(OCc2ccc(F)cc2F)c(Br)c1=O`, the IC50 was found to be 4.6 nM and the Ki turned out to be 1.73 nM.
For `CC(C)n1c(N2CC[C@@H](N)C2)nc(OCc2ccc(F)cc2F)c(Cl)c1=O`, in that order: 497 nM and 319 nM.
For `CC(C)n1c(-c2ccccc2)nc(OCc2ccc(F)cc2F)c(Br)c1=O`, in that order: 112 nM and 59.1 nM.
For `CC(C)n1c(N2CC[C@@H](NC(=O)OCc3ccccn3)C2)nc(OCc2ccc(F)cc2F)c(Br)c1=O`, in that order: 1220 nM and 756 nM.
In turn, `CCN[C@@H]1CCN(c2nc(OCc3ccc(F)cc3F)c(Br)c(=O)n2C(C)C)C1` returned an IC50 of 131 nM and a Ki of 71.6 nM.
For `C=CCCc1nc(OCc2ccc(F)cc2F)c(Cl)c(=O)n1C(C)C`, in that order: 164 nM and 79.9 nM.
